This assay concerns the target T1, glucocorticoid receptor (Homo sapiens, UniProt P04150).
T1 construct: endogenous in cells
T1 sequence (P04150 1-777): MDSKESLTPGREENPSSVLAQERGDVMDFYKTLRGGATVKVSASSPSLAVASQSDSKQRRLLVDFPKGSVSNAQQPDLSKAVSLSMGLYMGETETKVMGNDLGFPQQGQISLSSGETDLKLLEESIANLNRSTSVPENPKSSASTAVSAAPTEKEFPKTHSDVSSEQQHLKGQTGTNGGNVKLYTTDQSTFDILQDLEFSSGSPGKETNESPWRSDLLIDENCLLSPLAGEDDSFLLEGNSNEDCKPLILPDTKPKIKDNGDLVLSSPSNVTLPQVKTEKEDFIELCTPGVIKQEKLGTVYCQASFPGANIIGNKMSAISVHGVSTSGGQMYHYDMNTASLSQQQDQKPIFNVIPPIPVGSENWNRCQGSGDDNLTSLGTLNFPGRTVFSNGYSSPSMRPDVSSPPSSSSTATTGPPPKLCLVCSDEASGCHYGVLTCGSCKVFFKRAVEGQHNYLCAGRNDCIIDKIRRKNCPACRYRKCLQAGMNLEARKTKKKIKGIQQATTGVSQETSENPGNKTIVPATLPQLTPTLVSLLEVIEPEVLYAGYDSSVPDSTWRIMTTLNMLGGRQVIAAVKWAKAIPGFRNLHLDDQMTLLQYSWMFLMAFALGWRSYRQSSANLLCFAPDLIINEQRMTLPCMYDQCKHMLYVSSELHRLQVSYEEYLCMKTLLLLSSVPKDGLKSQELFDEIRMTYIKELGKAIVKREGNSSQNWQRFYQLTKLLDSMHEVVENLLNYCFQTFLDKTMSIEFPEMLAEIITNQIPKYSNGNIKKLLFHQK
Briefly: Ligand binding assay (GR BIND). An outline of the steps: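 Cytosol from freeze–thawed cells in TEGM (pH 7.2, 10 mM molybdate) was incubated overnight at 4 °C with compound and [3H]-dexamethasone trace (added as 6 nM solution), 2% EtOH final. Bound ligand was captured on hydroxylapatite, filtered, washed and scintillation counted. Values were calculated with dexamethasone as reference.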

SMILES strings stand for the structures.

Compound `Cn1cnc(S(=O)(=O)N(CC#N)C[C@H]2CCC3=Cc4c(cnn4-c4ccc(F)cc4)C[C@@]32C)c1` [Example 37, N-(cyanomethyl)-N-{[(4αR,5S)-1-(4-fluorophenyl}-4α-methyl-1,4,4α,5,6,7-hexahydrocyclopenta[f]indazol-5-yl]methyl}-1-methyl-1H-imidazole-4-sulfonamide] showed a Ki of 10.7 nM. For the compound `C[C@]12Cc3cnn(-c4ccc(F)cc4)c3C=C1CC[C@@H]2CN(CC#N)S(=O)(=O)c1ccc(Oc2cccc(Cl)c2C#N)cc1` [Example 38, 4-(3-chloro-2-cyanophenoxy)-N-(cyanomethyl)-N-{[(4αR,5S)-1-(4-fluorophenyl)-4α-methyl-1,4,4α,5,6,7-hexahydrocyclopenta[f]indazol-5-yl]methyl}benzenesulfonamide], the Ki was found to be 6.4 nM. Consider `CN1CCOc2cc(S(=O)(=O)N(CC#N)C[C@H]3CCC4=Cc5c(cnn5-c5ccc(F)cc5)C[C@@]43C)ccc21` [Example 39, N-(cyanomethyl)-N-{[(4αR,5S)-1-(4-fluorophenyl)-4α-methyl-1,4,4α,5,6,7-hexahydrocyclopenta[f]indazol-5-yl]methyl}-4-methyl-3,4-dihydro-2H-1,4-benzoxazine-7-sulfonamide], for which the Ki was found to be 8.1 nM. Turning to `C[C@]12Cc3cnn(-c4ccc(F)cc4)c3C=C1CC[C@@H]2CN(CC#N)S(=O)(=O)c1cccc2ccccc12` [Example 40, N-(cyanomethyl)-N-{[(4αR,5S)-1-(4-fluorophenyl)-4α-methyl-1,4,4α,5,6,7-hexahydrocyclopenta[f]indazol-5-yl]methyl}naphthalene-1-sulfonamide], affinity was put at a Ki of 10.5 nM. Take `C[C@]12Cc3cnn(-c4ccc(F)cc4)c3C=C1CC[C@@H]2CN(CC#N)S(=O)(=O)c1cc(OCC(F)(F)F)ccc1OCC(F)(F)F` [Example 41, N-(cyanomethyl)-N-{[(4αR,5S)-1-(4-fluorophenyl)-4α-methyl-1,4,4α,5,6,7-hexahydrocyclopenta[f]indazol-5-yl]methyl}-2,5-bis(2,2,2-trifluoroethoxy)benzenesulfonamide]: the inhibition constant (Ki) turned out to be 5.9 nM. Against the preceding compound, the Ki is about 1.8-fold lower.

For the compound `C[C@]12Cc3cnn(-c4ccc(F)cc4)c3C=C1CC[C@@H]2CN(CC#N)S(=O)(=O)c1ccc(-c2ccccc2)cc1` [Example 42, N-(cyanomethyl)-N-{[(4αR,5S)-1-(4-fluorophenyl)-4α-methyl-1,4,4α,5,6,7-hexahydrocyclopenta[f]indazol-5-yl]methyl}biphenyl-4-sulfonamide], the Ki came out at 5.9 nM. With `C[C@]12Cc3cnn(-c4ccc(F)cc4)c3C=C1CC[C@@H]2CN(CC#N)S(=O)(=O)c1ccccc1F` [Example 43, N-(cyanomethyl)-2-fluoro-N-{[(4αR,5S)-1-(4-fluorophenyl)-4α-methyl-1,4,4α,5,6,7-hexahydrocyclopenta[f]indazol-5-yl]methyl}benzenesulfonamide] the figure was 2.2 nM; with `C[C@]12Cc3cnn(-c4ccc(F)cc4)c3C=C1CC[C@@H]2CN(CC#N)S(=O)(=O)c1cc(F)cc(F)c1` [Example 44, N-(cyanomethyl)-3,5-difluoro-N-{[(4αR,5S)-1-(4-fluorophenyl)-4α-methyl-1,4,4α,5,6,7-hexahydrocyclopenta[f]indazol-5-yl]methyl}benzenesulfonamide], 1.6 nM. Consider `C[C@]12Cc3cnn(-c4ccc(F)cc4)c3C=C1CC[C@@H]2CN(CC#N)S(=O)(=O)c1ccc(Oc2ccccn2)cc1` [Example 45, N-(cyanomethyl)-N-{[(4αR,5S)-1-(4-fluorophenyl)-4α-methyl-1,4,4α,5,6,7-hexahydrocyclopenta[f]indazol-5-yl]methyl}-4-(pyridin-2-yloxy)benzenesulfonamide], for which the Ki worked out at 2.4 nM. With `C[C@]12Cc3cnn(-c4ccc(F)cc4)c3C=C1CC[C@@H]2CN(CC#N)S(=O)(=O)c1ccc(F)cc1` [Example 46, N-(cyanomethyl)-4-fluoro-N-{[(4αR,5S)-1-(4-fluorophenyl)-4α-methyl-1,4,4α,5,6,7-hexahydrocyclopenta[f]indazol-5-yl]methyl}benzenesulfonamide] the figure was 0.7 nM; with `C[C@]12Cc3cnn(-c4ccc(F)cc4)c3C=C1CC[C@@H]2CN(CC#N)S(=O)(=O)c1cc(F)c(F)cc1F` [Example 47, N-(cyanomethyl)-2,4,5-trifluoro-N-{[(4αR,5S)-1-(4-fluorophenyl)-4α-methyl-1,4,4α,5,6,7-hexahydrocyclopenta[f]indazol-5-yl]methyl}benzenesulfonamide], 0.7 nM. In the case of `C[C@]12Cc3cnn(-c4ccc(F)cc4)c3C=C1CC[C@@H]2CN(CC#N)S(=O)(=O)Cc1ccccc1` [Example 48, N-(cyanomethyl)-N-{[(4αR,5S)-1-(4-fluorophenyl)-4α-methyl-1,4,4α,5,6,7-hexahydrocyclopenta[f]indazol-5-yl]methyl}-1-phenylmethanesulfonamide], affinity was put at a Ki of 0.9 nM. In turn, `Cc1ccccc1S(=O)(=O)N(CC#N)C[C@H]1CCC2=Cc3c(cnn3-c3ccc(F)cc3)C[C@@]21C` [Example 49, N-(cyanomethyl)-N-{[(4αR,5S)-1-(4-fluorophenyl)-4α-methyl-1,4,4α,5,6,7-hexahydrocyclopenta[f]indazol-5-yl]methyl}-2-methylbenzenesulfonamide] yielded a Ki of 1.8 nM. This Ki lies about 2-fold higher than the previous one. Turning to `C[C@]12Cc3cnn(-c4ccc(F)cc4)c3C=C1CC[C@@H]2CN(CC#N)S(=O)(=O)c1ccccc1Cl` [Example 50, 2-chloro-N-(cyanomethyl)-N-{[(4αR,5S)-1-(4-fluorophenyl)-4α-methyl-1,4,4α,5,6,7-hexahydrocyclopenta[f]indazol-5-yl]methyl}benzenesulfonamide], affinity was put at a Ki of 6.5 nM. This Ki is about 3.6-fold higher than that of the compound before.

For the compound `C[C@]12Cc3cnn(-c4ccc(F)cc4)c3C=C1CC[C@@H]2CN(CC#N)S(=O)(=O)c1ccc(F)cc1F` [Example 51, N-(cyanomethyl)-2,4-difluoro-N-{[(4αR,5S)-1-(4-fluorophenyl)-4α-methyl-1,4,4α,5,6,7-hexahydrocyclopenta[f]indazol-5-yl]methyl}benzenesulfonamide], the Ki is 2.5 nM. `Cc1nn(C)c(Cl)c1S(=O)(=O)N(CC#N)C[C@H]1CCC2=Cc3c(cnn3-c3ccc(F)cc3)C[C@@]21C` [Example 52, 5-chloro-N-(cyanomethyl)-N-{[(4αR,5S)-1-(4-fluorophenyl)-4α-methyl-1,4,4α,5,6,7-hexahydrocyclopenta[f]indazol-5-yl]methyl}-1,3-dimethyl-1H-pyrazole-4-sulfonamide] came in with a Ki of 1.9 nM.

Compound `C[C@]12Cc3cnn(-c4ccc(F)cc4)c3C=C1CC[C@@H]2CN(CC#N)S(=O)(=O)c1ccccc1-c1ccccc1` [Example 53, N-(cyanomethyl)-N-{[(4αR,5S)-1-(4-fluorophenyl)-4α-methyl-1,4,4α,5,6,7-hexahydrocyclopenta[f]indazol-5-yl]methyl}biphenyl-2-sulfonamide] showed a Ki of 3.7 nM. As to `C[C@]12Cc3cnn(-c4ccc(F)cc4)c3C=C1CC[C@@H]2CN(CC#N)S(=O)(=O)c1ccccc1C(F)(F)F` [Example 54, N-(cyanomethyl)-N-{[(4αR,5S)-1-(4-fluorophenyl)-4α-methyl-1,4,4α,5,6,7-hexahydrocyclopenta[f]indazol-5-yl]methyl}-2-(trifluoromethyl)benzenesulfonamide], the affinity corresponds to a Ki of 8.5 nM.

Compound `C[C@]12Cc3cnn(-c4ccc(F)cc4)c3C=C1CC[C@@H]2CN(CC#N)S(=O)(=O)c1ccccc1C#N` [Example 55] displayed a Ki of 2.7 nM.

(Values after patent publication US8299048B2, “Hexahydrocyclopentyl[f]indazole sulfonamides and derivatives thereof as selective glucocorticoid receptor modulators” (Merck Sharp & Dohme Corp., priority 2008, dated 2012).)
